This note sets out measurements from patent US20250129027A1 (APOGEE PHARMACEUTICALS, INC., priority 2023, published 2025).

One test addresses human recombinant MAGL (Homo sapiens (Human), UniProt Q99685). As to the kind of experiment: In vitro inhibition of MAGL activity (inhibitor screening kit, 4-nitrophenylacetate). It counts as biochemical. The settings on record: human recombinant MAGL. The essentials: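 Percent inhibition derived from absorbance (405-412 nm) of treated wells relative to untreated enzyme control. Human recombinant MAGL with 4-nitrophenylacetate substrate, whose cleavage yields yellow 4-nitrophenol.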

For another test, the target named is human recombinant FAAH (Homo sapiens (Human), UniProt O00519). As to the kind of experiment: In vitro inhibition of FAAH activity (fluorescent inhibitor screening kit, AMC arachidonoyl amide). It is filed as biochemical. The following applies: human recombinant FAAH; read-out: Inhibition on FAAH activity (IC50). An outline of the steps:
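Fluorogenic kit assay: AMC arachidonoyl amide is cleaved by human recombinant FAAH, read at 340-360/450-465 nm. Percent inhibition versus non-treated control; IC50 values derived from multiple compound concentrations where tested.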

By IC50 is commonly meant the concentration that gives 50% inhibition.

human recombinant FAAH, sequence (O00519 whole entry): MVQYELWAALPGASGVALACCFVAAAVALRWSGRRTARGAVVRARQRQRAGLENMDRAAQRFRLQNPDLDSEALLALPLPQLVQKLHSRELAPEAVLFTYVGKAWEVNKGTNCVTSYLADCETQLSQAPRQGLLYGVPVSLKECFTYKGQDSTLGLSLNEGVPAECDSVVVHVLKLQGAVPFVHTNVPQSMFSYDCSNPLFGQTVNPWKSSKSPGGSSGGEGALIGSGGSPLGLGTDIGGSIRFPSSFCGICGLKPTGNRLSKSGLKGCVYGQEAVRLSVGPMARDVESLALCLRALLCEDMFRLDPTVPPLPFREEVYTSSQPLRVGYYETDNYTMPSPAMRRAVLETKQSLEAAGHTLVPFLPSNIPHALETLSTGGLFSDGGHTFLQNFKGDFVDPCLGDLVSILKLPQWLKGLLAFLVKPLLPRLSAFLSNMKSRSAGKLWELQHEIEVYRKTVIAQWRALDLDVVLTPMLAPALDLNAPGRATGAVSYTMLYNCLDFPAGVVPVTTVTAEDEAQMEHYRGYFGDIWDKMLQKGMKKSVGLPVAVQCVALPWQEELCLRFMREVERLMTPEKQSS
human recombinant MAGL, sequence (Q99685 whole entry): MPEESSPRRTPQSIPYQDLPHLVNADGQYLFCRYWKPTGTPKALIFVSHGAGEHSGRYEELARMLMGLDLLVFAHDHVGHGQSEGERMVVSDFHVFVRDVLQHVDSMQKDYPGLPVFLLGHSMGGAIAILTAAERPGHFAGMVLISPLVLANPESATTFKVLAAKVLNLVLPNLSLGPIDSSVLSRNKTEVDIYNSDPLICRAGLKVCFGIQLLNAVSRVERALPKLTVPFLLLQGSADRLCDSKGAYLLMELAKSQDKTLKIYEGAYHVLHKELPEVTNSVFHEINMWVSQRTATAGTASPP

Take `COc1ccc(OC(=O)NC2CCCC2)cc1-c1cncc(-c2nncs2)c1` [Example 216, 3-(5-(1,3,4-thiadiazol-2-yl)pyridin-3-yl)-4-methoxyphenyl cyclopentylcarbamate]: the IC50 on human recombinant MAGL was above 10 µM; on human recombinant FAAH, 0.1 to 1 µM.

`COc1ccc(OC(=O)NC2CCCCCC2)cc1-c1cncc(-c2nncs2)c1` [Example 218, 3-(5-(1,3,4-thiadiazol-2-yl)pyridin-3-yl)-4-methoxyphenyl cycloheptylcarbamate]: the IC50 at human recombinant MAGL was above 10 µM; on human recombinant FAAH, 0.01 to 0.1 µM.

Consider `CCCCCCCCNC(=O)Oc1cccc(-c2cncc(-c3ncn[nH]3)c2)c1` [Example 219, 3-(5-(1H-1,2,4-triazol-5-yl)pyridin-3-yl)phenyl octyl carbamate], for which the half-inhibitory concentration (IC50) at human recombinant MAGL is around 10 µM; at human recombinant FAAH, 0.001 to 0.01 µM.

Turning to `O=C(NCC1CCCCC1)Oc1cccc(-c2cncc(-c3ncn[nH]3)c2)c1` [Example 220, 3-(5-(1H-1,2,4-triazol-5-yl)pyridin-3-yl)phenyl (cyclohexylmethyl)carbamate], the IC50 on human recombinant MAGL was around 10 µM; on human recombinant FAAH, 0.01 to 0.1 µM.

Consider `O=C(NCc1ccccc1)Oc1cccc(-c2cncc(-c3ncn[nH]3)c2)c1` [Example 221, 3-(5-(1H-1,2,4-triazol-5-yl)pyridin-3-yl)phenyl benzyl carbamate], for which the IC50 at human recombinant MAGL is above 10 µM; on human recombinant FAAH, 0.1 to 1 µM.

Consider `O=C(NCc1ccc2ccccc2c1)Oc1cccc(-c2cncc(-c3ncn[nH]3)c2)c1` [Example 222, 3-(5-(1H-1,2,4-triazol-5-yl)pyridin-3-yl)phenyl (naphthalen-2-ylmethyl)carbamate], for which the values for the IC50 on human recombinant MAGL and on human recombinant FAAH were around 10 µM and 0.01 to 0.1 µM, respectively.

As to `O=C(NC1CCCC1)Oc1cccc(-c2cncc(-c3ncn[nH]3)c2)c1` [Example 223, 3-(5-(1H-1,2,4-triazol-5-yl)pyridin-3-yl)phenyl cyclopentylcarbamate], the IC50 on human recombinant MAGL was above 10 µM; at human recombinant FAAH it was 0.1 to 1 µM.

Consider `O=C(NC1CCCCC1)Oc1cccc(-c2cncc(-c3ncn[nH]3)c2)c1` [Example 224, 3-(5-(1H-1,2,4-triazol-5-yl)pyridin-3-yl)phenyl cyclohexylcarbamate], for which the IC50 at human recombinant MAGL was above 10 µM; at human recombinant FAAH it was 0.1 to 1 µM.

As for `CCCCCCCCNC(=O)Oc1ccc(O)c(-c2cncc(-c3ncn[nH]3)c2)c1` [Example 226, 3-(5-(1H-1,2,4-triazol-5-yl)pyridin-3-yl)-4-hydroxyphenyl octyl carbamate], the IC50 is above 10 µM on human recombinant MAGL and 0.001 to 0.01 µM on human recombinant FAAH.

As to `O=C(NCC1CCCCC1)Oc1ccc(O)c(-c2cncc(-c3ncn[nH]3)c2)c1` [Example 227, 3-(5-(1H-1,2,4-triazol-5-yl)pyridin-3-yl)-4-hydroxyphenyl (cyclohexyl methyl) carbamate], the IC50 is above 10 µM at human recombinant MAGL and 0.1 to 1 µM on human recombinant FAAH.

In the case of `O=C(NCc1ccccc1)Oc1ccc(O)c(-c2cncc(-c3ncn[nH]3)c2)c1` [Example 228, 3-(5-(1H-1,2,4-triazol-5-yl)pyridin-3-yl)-4-hydroxyphenyl benzylcarbamate], the figures for the IC50 on human recombinant MAGL and at human recombinant FAAH were above 10 µM and 0.1 to 1 µM, respectively.

On to `O=C(NC1CCCC1)Oc1ccc(O)c(-c2cncc(-c3ncn[nH]3)c2)c1` [Example 229, 3-(5-(1H-1,2,4-triazol-5-yl)pyridin-3-yl)-4-hydroxyphenyl cyclopentylcarbamate], for which the IC50 at human recombinant MAGL was above 10 µM; at human recombinant FAAH, 0.01 to 0.1 µM.

`O=C(NC1CCCCC1)Oc1ccc(O)c(-c2cncc(-c3ncn[nH]3)c2)c1` [Example 230, 3-(5-(1H-1,2,4-triazol-5-yl)pyridin-3-yl)-4-hydroxyphenyl cyclohexyl carbamate]: the concentration for half-maximal inhibition (IC50) is above 10 µM at human recombinant MAGL and 0.1 to 1 µM at human recombinant FAAH.

For `CCCCCCCCNC(=O)Oc1ccc(OC)c(-c2cncc(-c3ncn[nH]3)c2)c1` [Example 232, 3-(5-(1H-1,2,4-triazol-5-yl)pyridin-3-yl)-4-methoxyphenyl octylcarbamate], the values for the IC50 at human recombinant MAGL and on human recombinant FAAH were around 10 µM and 0.01 to 0.1 µM, respectively.

With `COc1ccc(OC(=O)NCC2CCCCC2)cc1-c1cncc(-c2ncn[nH]2)c1` [Example 233, 3-(5-(1H-1,2,4-triazol-5-yl)pyridin-3-yl)-4-methoxyphenyl (cyclohexylmethyl) carbamate], the half-inhibitory concentration (IC50) at human recombinant MAGL was around 10 µM; at human recombinant FAAH it was 0.1 to 1 µM.

With `COc1ccc(OC(=O)NCc2ccccc2)cc1-c1cncc(-c2ncn[nH]2)c1` [Example 234, 3-(5-(1H-1,2,4-triazol-5-yl)pyridin-3-yl)-4-methoxyphenyl benzyl carbamate], the IC50 on human recombinant MAGL was above 10 µM; on human recombinant FAAH it was above 1 µM.

For `COc1ccc(OC(=O)NC2CCCC2)cc1-c1cncc(-c2ncn[nH]2)c1` [Example 235, 3-(5-(1H-1,2,4-triazol-5-yl)pyridin-3-yl)-4-methoxyphenyl cyclopentylcarbamate], the IC50 was above 10 µM at human recombinant MAGL and 0.1 to 1 µM at human recombinant FAAH.

`COc1ccc(OC(=O)NC2CCCCC2)cc1-c1cncc(-c2ncn[nH]2)c1` [Example 236, 3-(5-(1H-1,2,4-triazol-5-yl)pyridin-3-yl)-4-methoxyphenyl cyclohexyl carbamate]: the values for the IC50 on human recombinant MAGL and at human recombinant FAAH were above 10 µM and 0.1 to 1 µM, respectively.

Take `COc1ccc(OC(=O)NC2CCCCCC2)cc1-c1cncc(-c2ncn[nH]2)c1` [Example 237, 3-(5-(1H-1,2,4-triazol-5-yl)pyridin-3-yl)-4-methoxyphenyl cycloheptylcarbamate]: the IC50 is above 10 µM on human recombinant MAGL and 0.1 to 1 µM at human recombinant FAAH.

Turning to `CCCCCCCCNC(=O)Oc1cccc(-c2cncc(-c3nnn[nH]3)c2)c1` [Example 238, 3-(5-(1H-tetrazol-5-yl)pyridin-3-yl)phenyl octylcarbamate], the values for the IC50 on human recombinant MAGL and at human recombinant FAAH were around 10 µM and 0.01 to 0.1 µM, respectively.

`O=C(NCC1CCCCC1)Oc1cccc(-c2cncc(-c3nnn[nH]3)c2)c1` [Example 239, 3-(5-(1H-tetrazol-5-yl)pyridin-3-yl)phenyl (cyclohexylmethyl)carbamate]: the IC50 is above 10 µM on human recombinant MAGL and above 1 µM at human recombinant FAAH.

With `O=C(NCc1ccccc1)Oc1cccc(-c2cncc(-c3nnn[nH]3)c2)c1` [Example 240, 3-(5-(1H-tetrazol-5-yl)pyridin-3-yl)phenyl benzylcarbamate], the results for the IC50 at human recombinant MAGL and on human recombinant FAAH were above 10 µM and above 1 µM, respectively.

Take `O=C(NC1CCCC1)Oc1cccc(-c2cncc(-c3nnn[nH]3)c2)c1` [Example 241, 3-(5-(1H-tetrazol-5-yl)pyridin-3-yl)phenyl cyclopentylcarbamate]: the IC50 was above 10 µM on human recombinant MAGL and above 1 µM on human recombinant FAAH.

In the case of `O=C(NC1CCCCC1)Oc1cccc(-c2cncc(-c3nnn[nH]3)c2)c1` [Example 242, 3-(5-(1H-tetrazol-5-yl)pyridin-3-yl)phenyl cyclohexylcarbamate], the figures for the IC50 at human recombinant MAGL and on human recombinant FAAH were above 10 µM and above 1 µM, respectively.

As for `O=C(NC1CCCCCC1)Oc1cccc(-c2cncc(-c3nnn[nH]3)c2)c1` [Example 243, 3-(5-(1H-tetrazol-5-yl)pyridin-3-yl)phenyl cycloheptylcarbamate], the IC50 is above 10 µM at human recombinant MAGL and above 1 µM at human recombinant FAAH.

As to `CCCCCCCCNC(=O)Oc1ccc(O)c(-c2cncc(-c3nnn[nH]3)c2)c1` [Example 244, 3-(5-(1H-tetrazol-5-yl)pyridin-3-yl)-4-hydroxyphenyl octylcarbamate], the IC50 at human recombinant MAGL is above 10 µM; on human recombinant FAAH, 0.1 to 1 µM.

Consider `O=C(NCC1CCCCC1)Oc1ccc(O)c(-c2cncc(-c3nnn[nH]3)c2)c1` [Example 245, 3-(5-(1H-tetrazol-5-yl)pyridin-3-yl)-4-hydroxyphenyl (cyclohexylmethyl)carbamate], for which the IC50 was above 10 µM at human recombinant MAGL and above 1 µM on human recombinant FAAH.

For the compound `O=C(NCc1ccccc1)Oc1ccc(O)c(-c2cncc(-c3nnn[nH]3)c2)c1` [Example 246, 3-(5-(1H-tetrazol-5-yl)pyridin-3-yl)-4-hydroxyphenyl benzylcarbamate], the IC50 was above 10 µM on human recombinant MAGL and above 1 µM on human recombinant FAAH.

On to `O=C(NC1CCCC1)Oc1ccc(O)c(-c2cncc(-c3nnn[nH]3)c2)c1` [Example 247, 3-(5-(1H-tetrazol-5-yl)pyridin-3-yl)-4-hydroxyphenyl cyclopentylcarbamate], for which the IC50 is above 10 µM on human recombinant MAGL and above 1 µM on human recombinant FAAH.

Turning to `O=C(NC1CCCCC1)Oc1ccc(O)c(-c2cncc(-c3nnn[nH]3)c2)c1` [Example 248, 3-(5-(1H-tetrazol-5-yl)pyridin-3-yl)-4-hydroxyphenyl cyclohexylcarbamate], the IC50 on human recombinant MAGL was above 10 µM; at human recombinant FAAH it was above 1 µM.

On to `O=C(NC1CCCCCC1)Oc1ccc(O)c(-c2cncc(-c3nnn[nH]3)c2)c1` [Example 249, 3-(5-(1H-tetrazol-5-yl)pyridin-3-yl)-4-hydroxyphenyl cycloheptylcarbamate], for which the IC50 at human recombinant MAGL is above 10 µM; at human recombinant FAAH, above 1 µM.

Take `CCCCCCCCNC(=O)Oc1ccc(OC)c(-c2cncc(-c3nnn[nH]3)c2)c1` [Example 250, 3-(5-(1H-tetrazol-5-yl)pyridin-3-yl)-4-methoxyphenyl octylcarbamate]: the IC50 on human recombinant MAGL was around 10 µM; on human recombinant FAAH, 0.1 to 1 µM.

As for `COc1ccc(OC(=O)NCC2CCCCC2)cc1-c1cncc(-c2nnn[nH]2)c1` [Example 251, 3-(5-(1H-tetrazol-5-yl)pyridin-3-yl)-4-methoxyphenyl (cyclohexylmethyl)carbamate], the IC50 on human recombinant MAGL was above 10 µM; on human recombinant FAAH, above 1 µM.

In the case of `COc1ccc(OC(=O)NCc2ccccc2)cc1-c1cncc(-c2nnn[nH]2)c1` [Example 252, 3-(5-(1H-tetrazol-5-yl)pyridin-3-yl)-4-methoxyphenyl benzylcarbamate], the 50% inhibitory concentration (IC50) at human recombinant MAGL was above 10 µM; on human recombinant FAAH, above 1 µM.
